# Experimental data from PubChem BioAssay (NCI).
#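 Growth conditions: 96-well plates. Treatment: test compound, 48 hours, 5 concentrations. Analysis: linear interpolation between bracketing concentrations; unreached endpoints set to highest concentration. TGI: concentration producing complete growth inhibition.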
# Legend:
# Experiment in all cases: NCI-60 cell line screen, 48 h
# UACC-257 melanoma = test system: UACC-257 melanoma
# NCI-H522 lung = test system: NCI-H522 lung
# SF-539 CNS = test system: SF-539 CNS
# 786-0 renal = test system: 786-0 renal
# LOX IMVI melanoma = test system: LOX IMVI melanoma
# EKVX NSCLC = test system: EKVX NSCLC
# KM12 colon = test system: KM12 colon
# MCF7 breast = test system: MCF7 breast
# CAKI-1 renal = test system: CAKI-1 renal
# HCC-2998 colon = test system: HCC-2998 colon
Structure (SMILES),TGI (UACC-257 melanoma) [µM],TGI (NCI-H522 lung) [µM],TGI (SF-539 CNS) [µM],TGI (786-0 renal) [µM],TGI (LOX IMVI melanoma) [µM],TGI (EKVX NSCLC) [µM],TGI (KM12 colon) [µM],TGI (MCF7 breast) [µM],TGI (CAKI-1 renal) [µM],TGI (HCC-2998 colon) [µM]
Cc1cc(C)c2c(=O)n(CN3CC4Nc5ccccc5C4C3)sc2n1 (stereo not given),32.2,14.2,39.8,33.8,48.5,88.5,> 100,> 100,57.6,
COc1cc(/C=C/C(=O)O)ccc1C(=O)O/C=C/c1ccccc1,> 100,> 100,> 100,,> 100,> 100,> 100,> 100,,
CC(C)=CCc1c2c(c3occ(-c4ccc(O)c(O)c4)c(=O)c3c1O)C=CC(C)(C)O2,4.89,0.458,4.14,2.88,5.22,17.3,3.41,11.4,3.02,2.45
CCN(CC)CCOC(NC(C)=O)(c1ccccc1)c1ccccc1,> 100,,> 100,> 100,,> 100,> 100,> 100,,> 100
COc1ccc(Nc2nc3ccc(C(F)(F)F)cc3nc2C(=O)O)cc1OC,> 100,84.6,,> 100,> 100,> 100,33.7,> 100,> 100,43.7
C[n+]1c(-c2ccccc2)cc2/c(=C\c3ccc([N+](=O)[O-])cc3)c3ccccc3n21,> 60.8,2.8,34.7,18.9,17.6,44.2,17.8,> 94.1,> 100,> 100
COc1cccc(-c2cc(=O)c3c(C)cc(C)nc3[nH]2)c1,,11.5,,> 100,> 100,> 100,16.6,27.3,,6.19
N#Cc1c(-c2ccccc2)/c(=C\Nc2ccc(Cl)cc2)c(=O)n2c1nc1ccccc12,> 100,> 100,> 100,> 100,> 100,,> 100,> 100,94.4,> 100
OC[C@@H](O)[C@H]1NC[C@@H](O)[C@H]1O,> 100,> 100,> 100,> 100,,> 100,> 100,> 100,> 100,> 100
CC(CC(C#N)(c1ccccc1)c1ccccc1)N1CCCCC1 (stereo not given),29.6,36.7,,80.3,33.5,56.3,49.2,74.7,> 100,29.1
COc1ccc(N2C(=O)c3c4c(c5c([nH]c6ncccc65)c3C2=O)CCC(C(C)(C)C)C4)cc1 (stereo not given),> 100,> 100,> 100,> 100,,> 100,> 100,> 100,,> 100
Cc1ccc(S(=O)(=O)Oc2cc(N)c3c(n2)CCC3)cc1,> 100,,> 100,> 100,> 100,> 100,> 100,> 100,> 100,> 100
CC(C)(C)N=c1n(C(C)(C)C)oc(=O)n1C(C)(C)C,> 100,,> 100,> 100,> 100,> 100,> 100,> 100,> 100,> 100
O=C1NCCCc2nonc21,> 100,,> 100,> 100,> 100,> 100,> 100,> 100,> 100,> 100
O=C(O)C1CC(c2ccc(F)cc2)=Nc2ccc(F)cc2S1 (stereo not given),> 100,> 100,> 100,> 100,,> 100,> 100,> 100,> 100,> 100
O=C1C(c2c(O)[nH]c3ccc(S(=O)(=O)O)cc23)=Nc2ccccc21,> 100,> 100,,> 100,> 100,> 100,> 100,> 100,> 100,> 100
O=C1CCC(=Nc2ccc(Cl)cc2)N1C(=O)COc1ccc(OCC(=O)N2C(=O)CSC2=Nc2ccc(Cl)cc2)cc1,> 100,> 100,,> 100,> 100,> 100,> 100,> 100,> 100,> 100
COc1cc(C2c3cc4c(cc3OC(NN=C(C)C)C2C)OCO4)cc(OC)c1O (stereo not given),> 100,25.3,56.1,> 100,,,> 100,> 100,> 100,31.6
NC(=O)C(=O)N/N=C1/c2ccccc2CC1C1(O)C(=O)Nc2c(Cl)cc(Cl)cc21 (stereo not given),> 100,> 100,> 100,,> 100,> 100,> 100,,> 100,> 100
CCC12C[N+]3([O-])CCc4c([nH]c5ccccc45)C(C(=O)OC)(c4cc5c(cc4OC)N(C)C4C(O)(C(=O)OC)C(OC(C)=O)C6(CC)C=CCN7CCC54C76)CC(C3)C1O2 (stereo not given),35.1,0.282,0.821,7.95,51.7,18,15.9,,30.1,> 100
COc1cc(/C=C2\C(=O)N(C(=O)Cc3ccccc3)N=C2C)ccc1O,> 100,> 100,> 100,> 100,> 100,> 100,> 100,,> 100,> 100
CCOP(=O)(OCC)C1C(CO)OC(n2ccc(=O)[nH]c2=O)C1O (stereo not given),> 100,> 100,> 100,> 100,> 100,> 100,> 100,,> 100,> 100
CCNC(=O)Nc1ccccn1,> 100,> 100,> 100,> 100,,> 100,> 100,> 100,> 100,> 100
